Laboratory results published in patent US12351580B2, “NLRP3 modulators” (Innate Tumor Immunity, Inc., priority 2017, dated 2025).

Biological target: T1, TLR8 (Homo sapiens, UniProt Q9NR97)
T1 construct: host or cells: HEK-Blue cells (human HEK) co-expressing TLR8 and an NF-kB/AP1-inducible SEAP reporter
T1 sequence (Q9NR97 27-1041): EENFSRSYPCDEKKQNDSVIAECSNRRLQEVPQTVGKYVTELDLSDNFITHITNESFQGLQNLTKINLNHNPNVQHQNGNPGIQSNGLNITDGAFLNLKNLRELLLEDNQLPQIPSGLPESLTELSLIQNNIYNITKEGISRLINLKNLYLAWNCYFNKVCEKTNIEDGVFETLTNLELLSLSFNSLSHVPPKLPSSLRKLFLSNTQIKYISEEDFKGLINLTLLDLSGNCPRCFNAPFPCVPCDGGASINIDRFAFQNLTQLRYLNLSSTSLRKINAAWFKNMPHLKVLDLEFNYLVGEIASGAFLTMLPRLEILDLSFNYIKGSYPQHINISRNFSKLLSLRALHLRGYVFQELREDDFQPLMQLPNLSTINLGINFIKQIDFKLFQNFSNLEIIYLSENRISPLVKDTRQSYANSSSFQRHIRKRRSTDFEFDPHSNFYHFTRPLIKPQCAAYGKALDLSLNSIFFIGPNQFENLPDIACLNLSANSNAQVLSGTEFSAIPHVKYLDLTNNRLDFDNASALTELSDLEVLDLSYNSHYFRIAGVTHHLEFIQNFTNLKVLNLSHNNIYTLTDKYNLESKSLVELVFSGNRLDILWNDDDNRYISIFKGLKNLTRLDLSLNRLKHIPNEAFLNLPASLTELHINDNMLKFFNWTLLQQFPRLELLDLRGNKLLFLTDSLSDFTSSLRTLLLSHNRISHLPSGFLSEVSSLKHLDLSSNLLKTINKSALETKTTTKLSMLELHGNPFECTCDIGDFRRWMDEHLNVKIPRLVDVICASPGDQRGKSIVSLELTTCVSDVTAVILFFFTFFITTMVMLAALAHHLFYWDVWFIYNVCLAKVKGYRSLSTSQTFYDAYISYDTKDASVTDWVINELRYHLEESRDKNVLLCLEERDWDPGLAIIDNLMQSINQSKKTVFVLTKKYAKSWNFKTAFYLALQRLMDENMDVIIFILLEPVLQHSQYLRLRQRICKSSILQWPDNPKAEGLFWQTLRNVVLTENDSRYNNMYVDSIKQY
Assay: In vitro human TLR8 binding reporter assay (HEK-Blue, NF-kB/AP1-inducible SEAP)
Format: cell-based
Conditions: activity range symbols
Procedure, shortened: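 Reporter cells are plated at 15,000 per well and rested 24 h. Next day, test compounds or DMSO are dispensed, followed by 18 h incubation at 37 °C, 5% CO2.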

| Structure (SMILES) | EC50 [µM] |
| --- | --- |
| CCC(=O)N(CC)Cc1nc2c(N)nc3cc(-c4ccn[nH]4)ccc3c2n1CC [Compound 473, N-{[4-amino-1-ethyl-7-(1H-pyrazol-5-yl)-1H-imidazo[4,5-c]quinolin-2-yl]methyl}-N-ethylpropanamide] | > 100 |
| CCN(Cc1nc2c(N)nc3cc(-c4ccn[nH]4)ccc3c2n1CC)C(C)=O [Compound 474, N-{[4-amino-1-ethyl-7-(1H-pyrazol-5-yl)-1H-imidazo[4,5-c]quinolin-2-yl]methyl}-N-ethylacetamide] | > 100 |
| CCC(=O)N(CC)Cc1nc2c(N)nc3cc(-c4ccn[nH]4)ccc3c2n1CCO [Compound 475, N-{[4-amino-1-(2-hydroxyethyl)-7-(1H-pyrazol-5-yl)-1H-imidazo[4,5-c]quinolin-2-yl]methyl}-N-ethylpropanamide] | > 100 |
| CCNCc1nc2c(N)nc3cc(-n4cccn4)ccc3c2n1CCO [Compound 477, 2-[4-amino-2-[(ethylamino)methyl]-7-(1H-pyrazol-1-yl)-1H-imidazo[4,5-c]quinolin-l-yl]ethan-1-ol] | > 100 |
| CCC(=O)N(CC)Cc1nc2c(N)nc3cc(-c4cccs4)ccc3c2n1CC [Compound 480, N-{[4-amino-1-ethyl-7-(thiophen-2-yl)-1H-imidazo[4,5-c]quinolin-2-yl]methyl}-N-ethylpropanamide] | > 100 |
| CCN(Cc1nc2c(N)nc3cc(-c4cccs4)ccc3c2n1CCO)C(C)=O [Compound 482, N-{[4-amino-1-(2-hydroxyethyl)-7-(thiophen-2-yl)-1H-imidazo[4,5-c]quinolin-2-yl]methyl}-N-ethylacetamide] | > 100 |

Now from value to compound:

| EC50 [µM] | Structure (SMILES) |
| --- | --- |
| > 100 | CCN(Cc1nc2c(N)nc3cc(-n4cccn4)ccc3c2n1CCO)C(C)=O [Compound 476, N-{[4-amino-1-(2-hydroxyethyl)-7-(1H-pyrazol-1-yl)-1H-imidazo[4,5-c]quinolin-2-yl]methyl}-N-ethylacetamide] |
| > 100 | CCC(=O)N(CC)Cc1nc2c(N)nc3cc(-n4cccn4)ccc3c2n1CCO [Compound 478, N-{[4-amino-1-(2-hydroxyethyl)-7-(1H-pyrazol-1-yl)-1H-imidazo[4,5-c]quinolin-2-yl]methyl}-N-ethylpropanamide] |
| > 100 | CCN(Cc1nc2c(N)nc3cc(-n4cccn4)ccc3c2n1CC)C(C)=O [Compound 479, N-{[4-amino-1-ethyl-7-(1H-pyrazol-1-yl)-1H-imidazo[4,5-c]quinolin-2-yl]methyl}-N-ethylacetamide] |
| > 100 | CCC(=O)N(CC)Cc1nc2c(N)nc3cc(-n4cccn4)ccc3c2n1CC [Compound 481, N-{[4-amino-1-ethyl-7-(1H-pyrazol-1-yl)-1H-imidazo[4,5-c]quinolin-2-yl]methyl}-N-ethylpropanamide] |
